Reference: patent US20220144775A1, “HYDRAZIDE COMPOUND AND KINASE INHIBITOR” (NISSAN CHEMICAL CORPORATION, priority 2019, published 2022)

Key:
LATS2 = biological target: T1, LATS2 (Homo sapiens, UniProt Q9NRM7); experiment: Kinase inhibitory activity against LATS2 (ADP quantification); assay type: biochemical; details: ATP 400 μM, read-out: kinase inhibitory rate
T1 construct: purchased Carna Biosciences
T1 sequence (Q9NRM7 1-1088): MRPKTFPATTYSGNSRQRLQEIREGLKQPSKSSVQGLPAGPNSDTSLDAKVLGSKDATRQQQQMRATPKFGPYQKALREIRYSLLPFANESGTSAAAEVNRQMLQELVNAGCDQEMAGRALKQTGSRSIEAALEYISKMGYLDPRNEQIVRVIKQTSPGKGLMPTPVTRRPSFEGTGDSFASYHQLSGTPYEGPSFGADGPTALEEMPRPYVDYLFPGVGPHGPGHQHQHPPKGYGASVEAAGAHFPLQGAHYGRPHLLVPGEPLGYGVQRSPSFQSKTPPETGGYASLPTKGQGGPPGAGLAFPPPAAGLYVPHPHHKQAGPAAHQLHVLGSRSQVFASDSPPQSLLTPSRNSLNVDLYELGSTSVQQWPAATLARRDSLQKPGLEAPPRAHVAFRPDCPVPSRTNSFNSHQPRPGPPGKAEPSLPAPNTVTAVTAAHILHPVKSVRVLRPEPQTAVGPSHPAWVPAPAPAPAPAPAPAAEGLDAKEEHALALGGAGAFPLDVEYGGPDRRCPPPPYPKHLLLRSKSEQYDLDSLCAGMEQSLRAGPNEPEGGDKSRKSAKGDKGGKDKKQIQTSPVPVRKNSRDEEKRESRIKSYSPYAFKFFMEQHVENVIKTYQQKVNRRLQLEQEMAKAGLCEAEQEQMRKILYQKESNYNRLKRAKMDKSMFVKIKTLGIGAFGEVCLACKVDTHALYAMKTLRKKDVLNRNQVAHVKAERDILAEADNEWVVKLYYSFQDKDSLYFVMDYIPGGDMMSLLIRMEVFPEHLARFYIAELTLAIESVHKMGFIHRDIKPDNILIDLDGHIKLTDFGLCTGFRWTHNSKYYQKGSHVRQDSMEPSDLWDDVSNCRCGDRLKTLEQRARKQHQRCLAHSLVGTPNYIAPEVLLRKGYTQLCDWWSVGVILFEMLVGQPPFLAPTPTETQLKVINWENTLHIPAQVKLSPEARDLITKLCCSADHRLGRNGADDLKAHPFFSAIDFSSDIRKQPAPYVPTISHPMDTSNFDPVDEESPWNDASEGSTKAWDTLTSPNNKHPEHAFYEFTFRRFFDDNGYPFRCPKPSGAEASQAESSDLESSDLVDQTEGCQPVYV
Procedure: (§1) Evaluation of the inhibitory activity (calculation of kinase inhibitory rate) of the compound of the present invention against LATS1 and LATS2 (manufactured by Carna Biosciences) was performed. The activity was measured using the Kinase Assay method described below. The test concentration of the compound of the present invention was set such that the final concentration was 100 nM or 1000 nM.
(§2) As the analysis method of the data, the mean signal of the control well containing reaction components other than the compound of the present invention was set to 0% inhibition, the mean signal without enzyme addition was set to 100% inhibition, and the inhibition rate was calculated from the mean signal of 2 wells of each compound.
(§3) 2 μL of a compound of the present invention solution at 2.5-fold concentration, 1 μL of substrate at 5-fold concentration (SGKtide: NH2-CKKRNRRLSVA-COOH, manufactured by SignalChem), ATP (manufactured by Sigma-Aldrich), MgCl2 (manufactured by FUJIFILM Wako Pure Chemical Corporation) solution (final concentration 10 μM, 400 μM and 5 mM, respectively), and 2 μL of kinase solution at 2.5-fold concentration (final concentration of LATS1 or LATS2 5 μg/mL), each prepared with assay buffer (20 mM HEPES, 0.01% Triton X-100, 2 mM DTT, 50 μg/mL BSA, pH 7.5), were mixed in the wells of a polypropylene 384-well plate (manufactured by Greiner Bio-One, #784900) and reacted at room temperature for 5 hr. To the solution was added 5 μL detection solution [Fluorospark (registered trade mark) Kinase/ADP Multi-Assay Kit; manufactured by FUJIFILM Wako Pure Chemical Corporation], and the mixture was reacted at room temperature for 30 min. Successively, 5 μL of a reaction quenching liquid [Fluorospark (registered trade mark) Kinase/ADP Multi-Assay Kit; manufactured by FUJIFILM Wako Pure Chemical Corporation] was added to discontinue the reaction. Thereafter, the ADP concentration of the reaction solution was quantified by EnSpire (manufactured by PerkinElmer) to detect the kinase reaction.

LATS1 = biological target: T2, LATS1 (Homo sapiens, UniProt O95835); experiment: Kinase inhibitory activity against LATS1 (ADP quantification); assay type: biochemical; details: ATP 400 μM, read-out: kinase inhibitory rate
T2 construct: purchased Carna Biosciences
T2 sequence (O95835 1-1130): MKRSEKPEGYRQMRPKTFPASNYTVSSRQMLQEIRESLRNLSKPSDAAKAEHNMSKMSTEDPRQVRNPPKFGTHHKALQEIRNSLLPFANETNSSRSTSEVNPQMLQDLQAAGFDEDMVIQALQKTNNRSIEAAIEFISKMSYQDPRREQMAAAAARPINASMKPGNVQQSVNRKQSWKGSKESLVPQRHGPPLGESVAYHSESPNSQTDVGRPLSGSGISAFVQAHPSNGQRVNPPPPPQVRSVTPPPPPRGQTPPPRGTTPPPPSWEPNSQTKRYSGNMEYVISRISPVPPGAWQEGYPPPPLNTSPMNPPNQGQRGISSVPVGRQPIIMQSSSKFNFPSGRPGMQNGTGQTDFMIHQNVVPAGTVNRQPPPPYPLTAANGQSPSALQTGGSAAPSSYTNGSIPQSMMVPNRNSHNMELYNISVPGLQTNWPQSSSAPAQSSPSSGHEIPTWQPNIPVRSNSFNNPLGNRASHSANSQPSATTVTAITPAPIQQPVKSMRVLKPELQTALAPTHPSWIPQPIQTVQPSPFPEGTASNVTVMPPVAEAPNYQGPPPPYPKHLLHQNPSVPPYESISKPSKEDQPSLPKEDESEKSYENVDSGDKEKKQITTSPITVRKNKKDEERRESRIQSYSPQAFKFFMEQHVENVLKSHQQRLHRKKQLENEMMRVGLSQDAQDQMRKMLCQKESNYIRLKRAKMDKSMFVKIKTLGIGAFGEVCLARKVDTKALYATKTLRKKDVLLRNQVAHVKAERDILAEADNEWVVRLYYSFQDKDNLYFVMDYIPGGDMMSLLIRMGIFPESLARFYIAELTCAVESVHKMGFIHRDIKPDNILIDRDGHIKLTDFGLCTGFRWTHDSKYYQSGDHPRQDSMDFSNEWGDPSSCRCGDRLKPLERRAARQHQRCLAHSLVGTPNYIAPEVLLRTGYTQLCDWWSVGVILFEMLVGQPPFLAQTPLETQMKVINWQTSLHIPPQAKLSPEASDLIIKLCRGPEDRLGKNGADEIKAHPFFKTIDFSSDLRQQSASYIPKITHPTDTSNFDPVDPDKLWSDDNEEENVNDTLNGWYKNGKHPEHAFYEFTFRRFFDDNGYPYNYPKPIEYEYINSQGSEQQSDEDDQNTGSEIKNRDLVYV
Procedure: as §1, §2, §3

CC/C(=N\NC(=O)C(C)Nc1cccnc1)c1ccc(O)c(C)c1O (stereo not shown) [A-004, (E)-N′-(1-(2,4-dihydroxy-3-methylphenyl)propylidene)-2-(pyridin-3-ylamino)propanehydrazide]
≥ 40%: inhibition at 0.1 µM (LATS2; final concentration 100 nM) | inhibition at 1 µM (LATS2; final concentration 1000 nM) | inhibition at 0.1 µM (LATS1; final concentration 100 nM) | inhibition at 1 µM (LATS1; final concentration 1000 nM)
